Reference: patent EP0427799B1, “METHOD AND COMPOUNDS FOR AICA RIBOSIDE DELIVERY AND FOR LOWERING BLOOD GLUCOSE” (GENSIA, INC., priority 1989, dated 1990)
Where “and” joins values, the source holds several entries; their conditions need not be identical. Equal values may be shown once.

Tests used:
[1] = test system: Blood Glucose; assay: Effect on blood glucose in rabbits (hexokinase procedure); type: in vivo, Rabbits (New Zealand White); settings: for Blood Glucose Change(+/-): 2H post-dose vs pre-dose; for Blood Glucose Change(+/-) / Blood Glucose 2H Post-Dose: individual rabbits
Procedure: Rabbits (New Zealand White) were given IV doses of AICA riboside, either 2 ml/kg (100 mg/kg) or 4 ml/kg (200 mg/kg). Blood was obtained by venipuncture before AICA riboside administration and two hours post-administration. Blood glucose concentrations before administration and two hours post-administration were measured by the hexokinase procedure (see Example K). The percent change (+/-) from pre-dose values are reported. Both dosage levels decreased blood glucose levels as compared with pre-AICA riboside administration levels.
AICA riboside (100, 250 or 500 mg/kg) or saline (as a control) was administered intraperitoneally to rats. Sixty minutes after AICA riboside administration, the rats were sacrificed by cervical dislocation. Blood glucose was determined spectrophotometrically measuring O.D. at 340 nm by the hexokinase method using the glucose SR Reagent (Medical Analysis Systems, Inc.) Blood lactate and pyruvate were determined spectrophotometrically measuring O.D. at 340 nm using lactate dehydrogenase in the presence of excess NAD or NADH, respectively.

[2] = test system: plasma glucose; assay: Plasma glucose levels in non-fasted rats; type: in vivo, rats (Sprague Dawley); settings: 750 mg/Kg, 1 hour after administration
Procedure: This hypoglycemic effect may contribute to the anti-ischemic properties of the molecule. Ribose is known to lower blood glucose in several animal species, including man, in relatively high doses (on the order of about 1000 mg/kg) by an unknown mechanism, possibly by inhibition of phosphoglucomutase. Accordingly, in theory, AICA riboside could cause hypoglycemia at extremely high doses ([…]) due to its ability to deliver ribose phosphate to cells. Other means of increasing intracellular ribose such as treatment with ribose itself or other nucleosides and prodrugs and analogs of them which can be metabolized to yield ribose-1-phosphate (which is converted ribose-5-phosphate) or ribose-5-phosphate may also lower blood sugar. […] At higher doses of AICA riboside, hypoglycemic seizures and death were induced in rabbits and mice. We have found rats to also be sensitive to the hypoglycemic effects of AICA riboside. Initial studies were performed using non-fasted rats (Sprague Dawley) and mice (Swiss-Webster). […] In non-fasted mice the decrease of glucose levels at this dose was greater, On the order of 30-50%. In both cases the hypoglycemia was statistically significant at the p <.01 level. […] In fasted mice, AICA riboside is potent in lowering blood glucose. (See e.g., Figure 6). In fasted mice AICA riboside may cause seizures at doses of 500 mg/Kg and above. […]

[3] = test system: plasma glucose; assay: Plasma glucose levels in non-fasted and fasted mice; type: in vivo, mice (Swiss-Webster); settings: for reduced glucose levels: fasted mice (16 hours)
Procedure: Ribose is known to lower blood glucose in several animal species, including man, in relatively high doses (on the order of about 1000 mg/kg) by an unknown mechanism, possibly by inhibition of phosphoglucomutase. […] Initial studies were performed using non-fasted rats (Sprague Dawley) and mice (Swiss-Webster).
Male mice (Swiss-Webster) were injected IP with the indicated treatment. […] Ribose and AICA riboside were formulated in saline. Glucose levels were measured on plasma (heparinized blood centrifuged at 10,000 X g for ten minutes). Glucose levels were measured one hour after AICA riboside administration.

[4] = in vivo; set-up: species or system dogs; settings: dog
Procedure: The bioavailability of AICA riboside after oral administration of either AICA riboside or one of the AICA riboside prodrugs of the present invention was evaluated in dogs. Plasma concentrations of AICA riboside and intact prodrug were measured using HPLC. (See Dixon, R., et al., Res. Commun. Chem. Path. Pharm. 65:405-408 (1989)). Bioavailability of AICA riboside was evaluated in terms of the time required to reach maximum plasma concentration (Tmax), the maximum concentration achieved (Cmax) and the area under the plasma concentration-time curve (AUC) from time zero to the last measurable plasma concentration. Absolute bioavailability (F%) was calculated by dividing the AUC for AICA riboside following oral administration of the prodrug (or AICA riboside itself) by the AUC following intravenous administration of an equivalent amount of AICA riboside (100% bioavailability).

[5] = test system: ischemic heart tissue; assay: Adenosine, AICA riboside and ZMP levels in ischemic heart tissue; type: in vivo, rats; settings: ischemic rat heart tissue
Procedure: Prodrug compounds of the present invention and AICA riboside were tested for their activity in enhancing the production of adenosine and increasing production of AICA riboside from ZMP in ischemic heart tissue in rats.
Samples of heart tissue after ischemia were analyzed for nucleoside and nucleotide levels. Samples were measured for adenosine, AICA riboside and ZMP concentrations by HPLC.

[6] = test system: hippocampal CA-1 cells; assay: Gerbil model of 5 minutes global brain ischemia followed by reperfusion; type: in vivo; settings: ICV and IP administration
Description: The claimed prodrugs, by delivering AICA riboside should provide similar efficacy. […] Both intracerebroventricular (ICV) and IP administration of AICA riboside was effective in the gerbil model In addition to the gerbil, two different rat models of focal ischemia were also used to evaluate AICA-riboside. One model employed partial reperfusion and the second total reperfusion.

[7] = test system: serum glucose; assay: Plasma glucose levels in humans after intravenous infusion; type: in vivo
Procedure: Healthy male volunteers were given a 30-minute intravenous infusion of AICA riboside at doses of 25 mg/kg, 50 mg/kg or 100 mg/kg.
Plasma glucose levels were monitored over a four hour period during and following the 30 minute infusion. Plasma glucose was measured by clinical chemistry autoanalyzer. The onset of the serum glucose lowering effect was evident by the end of the AICA riboside infusion period and plasma glucose reached a nadir approximately 30 minutes after the AICA riboside infusion was stopped. Recovery to euglycemic levels was complete by about three hours.

[8] = 2ml (100 mg/kg) IV, rabbit 10 not included
[9] = healthy male volunteers, 30-minute intravenous infusion

Compound: NC(=O)c1ncn([C@@H]2O[C@H](CO)[C@@H](O)[C@H]2O)c1N [AICA riboside, 1-β-D-ribofuranosyl-5-aminoimidazole-4-carboxamide]
- Blood Glucose Change(+/-) ([1]; 2ml (100 mg/kg) IV): -25 mg% and +102* mg% and -24 mg% (2×) and -28 mg% and +10 mg% and -22 mg% and -23 mg% and -11 mg% and -53 mg%
- Blood Glucose 2H Post-Dose ([1]; 2ml (100 mg/kg) IV): 93 mg% and 215* mg% and 87 mg% and 89 mg% (2×) and 122 mg% and 96 mg% and 98 mg% and 106 mg% and 99 mg%
- Blood Glucose 2H Post-Dose, Mean [1, 8]: 98 mg%
- Blood Glucose Change(+/-), Mean [1, 8]: -22 mg%
- Blood Glucose Change(+/-) ([1]; 4ml (200mg)/kg IV): -14 mg% and -76 mg% and -42 mg% and -69 mg% and -59 mg%
- Blood Glucose 2H Post-Dose ([1]; 4ml (200mg)/kg IV): 100 mg% and 32** mg% and 79 mg% and 56 mg% and 62 mg%
- Blood Glucose 2H Post-Dose, Mean ([1]; 4ml (200mg)/kg IV): 66 mg%
- Blood Glucose Change(+/-), Mean ([1]; 4ml (200mg)/kg IV): -52 mg%
- Decreases in plasma glucose levels [2]: 30-40%
- doses that may cause seizures ([3]; fasted mice): ≥ 500 mg/kg
- duration of reduced plasma glucose levels ([3]; fasted mice (2 hours), 500 mg/Kg): 2 to 3 h
- reduced glucose levels ([3]; 250 mg/Kg): 50%
- reduced glucose levels ([3]; 500 and 750 mg/Kg): 60%
- decrease of glucose levels ([3]; non-fasted mice, 750 mg/Kg): 30-50%
- AUC(0-t) ([4]; iv): 8300 ng·h/mL
- F ([4]; iv): 100%
- AUC(0-t) ([4]; po): 900 ng·h/mL
- Cmax ([4]; po): 1100 ng/mL
- Tmax ([4]; po): 45 min
- bioavailability ([4]; po): 11%
- Tissue Concentration Adenosine ([5]; Prodrug A at dose equimolar to AICA riboside): 409 ± 60 nmol/g
- Tissue Concentration AICA Riboside ([5]; equimolar doses): 774 ± 73 nmol/g
- degeneration of hippocampal CA-1 cells [6]: prevented the degeneration of hippocampal CA-1 cells
- time of plasma glucose nadir after infusion was stopped [7, 9]: approximately 30 minutes
- time to recovery to euglycemic levels [7, 9]: about three
- effect on serum glucose ([7]; humans, 25 mg/kg intravenously over 30 minutes): significant reductions in serum glucose
